# In PMC7196072, “Cryo-EM structures of PAC1 receptor reveal ligand binding mechanism” (Cell Research, 2020):
# Like-named read-outs stand apart in the source and are kept apart here.
# What was measured:
# [1] = cited from earlier work
# Source text: As the major sensory and vasodilator neuropeptides, PACAP38 and VIP are involved in parasympathetic communication with the cranial vasculature. Abnormal activation and sensitization of the central trigeminovascular pain pathway mediate migraine and the release of these peptides.[5]
# [2] = test system: PAC1R construct used in the cryo-EM studies; assay type: cell-based, human; details: cAMP, BacMam CHO-K1, pH 7.4, 30 min 37 °C, average ± SD, N=3
# Method: WT PAC1R and mutations used in the functional assay were cloned into pJIF1.1 for BacMam virus generation.
# CHO-K1 cells were cultured in DMEM supplemented with 10% FBS and infected with BacMam viruses with a MOI of 100. 24 h after infection, cells were collected for membrane preparation or functional assay.
# Activation of WT PAC1R and mutants was measured based on intracellular cAMP levels using Lance Ultra cAMP kit (PerkinElmer) according to the manufacturer’s protocol. […] Then 5 µL of 4× Eu-cAMP and 5 µL of 4× Ulight-Anti-cAMP working solutions were added to each well and incubated at room temperature for 60 min before reading with Envision (PerkinElmer). All signals (ratio of 665 nm/615 nm) were fit with a sigmoidal dose-response model using GraphPad Prism 7.
# Both the average and S.D.
# are calculated based 3 rounds of independent assays in 3 different days (N=3), and on each
# day, duplicates were run for each dose on dose response curves.
# # Ratio to WT is calculated as EC50 of mutation to EC50 of WT.
# † The best-fit value of pEC50 from 3 different assays was used to calculate p value in T-test,
# between WT and each mutation, with 2-tailed and equal variance (homoscedastic).
Compound,"induction of delayed migraine-like headaches ([1]; in vivo, iv)",pEC50 [2],induction of delayed migraine-like headaches ([1]; intravenous infusion)
"CC[C@H](C)[C@H](NC(=O)CNC(=O)[C@H](CC(=O)O)NC(=O)[C@H](CO)NC(=O)[C@@H](N)Cc1cnc[nH]1)C(=O)N[C@@H](Cc1ccccc1)C(=O)N[C@H](C(=O)N[C@@H](CC(=O)O)C(=O)N[C@@H](CO)C(=O)N[C@@H](Cc1ccc(O)cc1)C(=O)N[C@@H](CO)C(=O)N[C@@H](CCCNC(=N)N)C(=O)N[C@@H](Cc1ccc(O)cc1)C(=O)N[C@@H](CCCNC(=N)N)C(=O)N[C@@H](CCCCN)C(=O)N[C@@H](CCC(N)=O)C(=O)N[C@@H](CCSC)C(=O)N[C@@H](C)C(=O)N[C@H](C(=O)N[C@@H](CCCCN)C(=O)N[C@@H](CCCCN)C(=O)N[C@@H](Cc1ccc(O)cc1)C(=O)N[C@@H](CC(C)C)C(=O)N[C@@H](C)C(=O)N[C@@H](C)C(=O)N[C@H](C(=O)N[C@@H](CC(C)C)C(=O)NCC(=O)N[C@@H](CCCCN)C(=O)N[C@@H](CCCNC(=N)N)C(=O)N[C@@H](Cc1ccc(O)cc1)C(=O)N[C@@H](CCCCN)C(=O)N[C@@H](CCC(N)=O)C(=O)N[C@@H](CCCNC(=N)N)C(=O)N[C@H](C(=O)N[C@@H](CCCCN)C(=O)N[C@@H](CC(N)=O)C(=O)N[C@@H](CCCCN)C(N)=O)C(C)C)C(C)C)C(C)C)[C@@H](C)O [PACAP38, pituitary adenylate cyclase-activating polypeptide]",induces delayed migraine-like headaches,9.71 ± 0.21,
vasoactive intestinal polypeptide [VIP],,,but not VIP induces delayed migraine-like headaches
